Laboratory results from US7282522B2, “Hydroxamic acid derivatives and the method for preparing thereof” (Amorepacific Corporation, priority 2003, dated 2007).

Experiments:
[1] = test system: procollagen type I; test: Effect on collagen biosynthesis (procollagen type I ELISA) in human fibroblasts; type: cell-based; conditions: 10^−4M, 24 hours, serum-free medium, relative to control group = 100
Experimental: Human fibroblasts were seeded into 24-well plate at 1×10^5 cells per well and then cultured to 90% of growth.
For each supernatant, procollagen production was measured with procollagen type I ELISA kit.

[2] = test system: collagenase; test: Inhibition of collagenase expression in human fibroblasts (ELISA kit); type: cell-based; conditions: 10^−4M, 24 hours, serum-free medium, relative to control group = 100
Summary of the method: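 Serum-starved human fibroblasts were treated for 24 h with 10^−4M test material in serum-free DMEM. Collagenase in the culture fluid was measured by sandwich ELISA read at 405 nm. Values are expressed as % of the untreated control (=100).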

[3] = biological target: T1, RARγ (Homo sapiens, UniProt P13631); test: RARE-luciferase reporter assay in transfected CV-1 cells (affinity to retinoic acid receptor), RARγ; type: cell-based; conditions: treated 24 hours at final concentration 10^−4M, control group 5000
T1 construct: expressed in transfected cells; host or cells: CV-1 cells (ATCC)
T1 sequence (P13631 1-454): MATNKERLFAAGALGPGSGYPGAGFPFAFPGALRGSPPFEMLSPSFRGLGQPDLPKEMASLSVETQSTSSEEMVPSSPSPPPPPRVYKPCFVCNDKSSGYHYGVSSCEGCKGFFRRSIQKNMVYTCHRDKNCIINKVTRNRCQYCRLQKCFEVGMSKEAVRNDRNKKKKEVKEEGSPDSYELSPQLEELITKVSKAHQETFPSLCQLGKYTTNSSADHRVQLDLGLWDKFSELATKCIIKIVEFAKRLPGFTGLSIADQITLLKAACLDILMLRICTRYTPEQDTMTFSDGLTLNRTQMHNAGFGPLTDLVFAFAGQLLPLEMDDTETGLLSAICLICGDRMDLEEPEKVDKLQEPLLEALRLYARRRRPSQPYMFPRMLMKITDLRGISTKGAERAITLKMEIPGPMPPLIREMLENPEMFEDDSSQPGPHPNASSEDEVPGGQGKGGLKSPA
Summary of the method: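 CV-1 cells in DMEM with 2.5% FBS, 5,000 per well, transfected 24 h after seeding with 10 ng pECE-RARα, pECE-RARγ, 100 ng RARE-tk-Luc reporter and 100 ng β-galactosidase vector. Read-out is RARE-driven luciferase.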

[4] = test system: rabbits; test: Primary skin irritation test on animals (Draize P.I.I.); conditions: depilated back; for P.I.I. (Primary Irritation Index): 0.5 ml of 1% solution in 1,3-butylene glycol:ethanol 7:3, observed 24 or 72 hours later; for Evaluation (skin irritation): 1% solution, according to Draize's P.I.I.
[5] = test system: elastase; test: Inhibition of elastase expression in human fibroblasts (ELISA kit); type: cell-based; conditions: 10^−4M, 24 hours, serum-free medium, relative to control group = 100
Summary of the method: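 Elastase in fibroblast culture fluid quantified by sandwich ELISA: 3 h capture, then chromophore-conjugated secondary antibody, then colour development, stopped with 1M sulfuric acid. Absorbance read at 405 nm. Expression given as % of the untreated control absorbance, with control set to 100.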

[6] = test system: white guinea pigs; test: Phototoxicity test (UVA irradiation); conditions: for Evaluation (phototoxicity): 1%(w/v) solution, UVA 15 J/cm^2; for Phototoxic index: 50 μl of 1%(w/v) solution, UVA 320~380 nm 15 J/cm^2, observed 24, 48 and 72 hours
Experimental: Test was performed for twenty-five (25) of white guinea pigs whose backs were depilated and fixed. On both sides of the back, six(6) sites of 2 cm×2 cm, three(3) per side were sectioned. Right sites were compared as controls with no irradiation (UV non-irradiation sites) and left sites were irradiated (UV irradiation sites).
30 Minutes later, right sites were shielded with aluminum foil and UVA(320˜380 nm) was irradiated at a distance of about 10 cm therefrom using Waldmann to the final energy of 15 J/cm^2. After 24, 48 and 72 hours elapsed, skin response of guinea pig was observed. […] Evaluation was estimated for each elapsed time, i.e. 24, 48 and 72 hours and maximum scores were selected, to calculate irritation index by the following equation 3. Then, phototoxic index was calculated by the following equation 4. Irritation index=(ΣMaximum of erythema+ΣMaximum of edema)/Number of animals [Equation 3] Phototoxic index=(Irritation index of UV irradiation site)−(Irritation index of UV non-irradiation site) Equation 4]

[7] = biological target: T2, RARα (Homo sapiens, UniProt P10276); test: RARE-luciferase reporter assay in transfected CV-1 cells (affinity to retinoic acid receptor), RARα; type: cell-based; conditions: treated 24 hours at final concentration 10^−4M, control group 1000
T2 construct: expressed in transfected cells; host or cells: CV-1 cells (ATCC)
T2 sequence (P10276 1-462): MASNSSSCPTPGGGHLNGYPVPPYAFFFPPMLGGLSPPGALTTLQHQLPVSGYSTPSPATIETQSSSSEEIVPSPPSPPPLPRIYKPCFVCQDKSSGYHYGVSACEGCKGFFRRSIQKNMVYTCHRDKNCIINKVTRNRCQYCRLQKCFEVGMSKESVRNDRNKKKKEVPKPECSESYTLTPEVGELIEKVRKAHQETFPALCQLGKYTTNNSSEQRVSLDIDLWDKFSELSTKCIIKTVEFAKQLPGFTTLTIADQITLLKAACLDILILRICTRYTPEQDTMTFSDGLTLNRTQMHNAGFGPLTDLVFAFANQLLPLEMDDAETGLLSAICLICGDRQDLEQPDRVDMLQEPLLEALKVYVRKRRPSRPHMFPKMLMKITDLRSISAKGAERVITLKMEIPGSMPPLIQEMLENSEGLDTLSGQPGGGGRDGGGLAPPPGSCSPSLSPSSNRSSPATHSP
Summary of the method: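 CV-1 cells co-transfected with pECE-RARα or pECE-RARγ, RARE-tk-Luc reporter and β-galactosidase vector. Starting 24 h post-transfection, cells were treated for 24 h with compounds at a final 10^−4M; luciferase reporter read-out.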

| SMILES | Collagen biosynthesis (%) [1] [%] | Collagenase expression (%) [2] [%] | Luciferase activity RARγ [3] | P.I.I. (Primary Irritation Index) [4] | Evaluation (skin irritation) [4] | Elastase expression (%) [5] [%] | Evaluation (phototoxicity) [6] | Phototoxic index [6] | Luciferase activity RARα [7] |
| --- | --- | --- | --- | --- | --- | --- | --- | --- | --- |
| CC(C)(C)c1ccc(NC(=O)c2ccc(C(=O)NO)cc2)cc1 [Example 41, [4-(N-hydroxycarbamoyl)phenyl]-N-[4-tert-butylphenyl]carboxyamide] | 115 | 88 | 11211 | 0.367 | No irritation | 78 | No phototoxicity (lower value than 0.5, criterion value to be estimated as no phototoxicity) | 0 | 14300 |
| Cc1ccc(NC(=O)c2ccc(C(=O)NO)cc2)cc1C [Example 42, [4-(N-hydroxycarbamoyl)phenyl]-N-[3,4-dimethylphenyl]carboxyamide] | 116 | 78 | 11200 | 0.987 | No irritation | 76 | No phototoxicity (lower value than 0.5, criterion value to be estimated as no phototoxicity) | 0 | 14500 |
| O=C(NO)c1ccc(C(=O)NC23CC4CC(CC(C4)C2)C3)cc1 [Example 43, [4-(N-hydroxycarbamoyl)phenyl]-N-adamantyl carboxyamide] | 130 | 77 | 10600 | 0.456 | No irritation | 70 | No phototoxicity (lower value than 0.5, criterion value to be estimated as no phototoxicity) | 0 | 18900 |
| Cc1ccc(N(C)C(=O)c2ccc(C(=O)NO)cc2)cc1 [Example 46, [4-(N-hydroxycarbamoyl)phenyl]-N-methyl-N-[4-methylphenyl]carboxyamide] | 121 | 83 | 11123 | 0.345 | No irritation | 80 | No phototoxicity (lower value than 0.5, criterion value to be estimated as no phototoxicity) | 0 | 13200 |
| Cc1cccc(N(C)C(=O)c2ccc(C(=O)NO)cc2)c1 [Example 47, [4-(N-hydroxycarbamoyl)phenyl]-N-methyl-N-[3-methylphenyl]carboxyamide] | 112 | 79 | 11700 | 0.367 | No irritation | 83 | No phototoxicity (lower value than 0.5, criterion value to be estimated as no phototoxicity) | 0 | 12200 |
| CCc1ccc(N(C)C(=O)c2ccc(C(=O)NO)cc2)cc1 [Example 48, [4-(N-hydroxycarbamoyl)phenyl]-N-methyl-N-[4-ethylphenyl]carboxyamide] | 107 | 87 | 11200 | 0.468 | No irritation | 87 | No phototoxicity (lower value than 0.5, criterion value to be estimated as no phototoxicity) | 0 | 15500 |
| CCCc1ccc(N(C)C(=O)c2ccc(C(=O)NO)cc2)cc1 [Example 49, [4-(N-hydroxycarbamoyl)phenyl]-N-methyl-N-[4-propylphenyl]carboxyamide] | 109 | 81 | 12100 | 0.342 | No irritation | 87 | No phototoxicity (lower value than 0.5, criterion value to be estimated as no phototoxicity) | 0 | 14500 |
| CC(C)c1ccc(N(C)C(=O)c2ccc(C(=O)NO)cc2)cc1 [Example 50, [4-(N-hydroxycarbamoyl)phenyl]-N-methyl-N-[4-isopropylphenyl]carboxyamide] | 110 | 80 | 11212 | 0.234 | No irritation | 78 | No phototoxicity (lower value than 0.5, criterion value to be estimated as no phototoxicity) | 0 | 12300 |
| CCCCc1ccc(N(C)C(=O)c2ccc(C(=O)NO)cc2)cc1 [Example 51, [4-(N-hydroxycarbamoyl)phenyl]-N-methyl-N-[4-butylphenyl]carboxyamide] | 121 | 76 | 12210 | 0.331 | No irritation | 77 | No phototoxicity (lower value than 0.5, criterion value to be estimated as no phototoxicity) | 0 | 13400 |
| CN(C(=O)c1ccc(C(=O)NO)cc1)c1ccc(C(C)(C)C)cc1 [Example 52, [4-(N-hydroxycarbamoyl)phenyl]-N-methyl-N-[4-tert-butylphenyl]carboxamide] | 127 | 77 | 12130 | 0.412 | No irritation | 87 | No phototoxicity (lower value than 0.5, criterion value to be estimated as no phototoxicity) | 0 | 12400 |
| Cc1ccc(N(C)C(=O)c2ccc(C(=O)NO)cc2)cc1C [Example 53, [4-(N-hydroxycarbamoyl)phenyl]-N-methyl-N-[3,4-dimethylphenyl]carboxyamide] | 122 | 75 | 12300 | 0.321 | No irritation | 80 | No phototoxicity (lower value than 0.5, criterion value to be estimated as no phototoxicity) | 0 | 14500 |
| CN(C(=O)c1ccc(C(=O)NO)cc1)C12CC3CC(CC(C3)C1)C2 [Example 54, [4-(N-hydroxycarbamoyl)phenyl]-N-adamantyl-N-methylcarboxyamide] | 121 | 83 | 11000 | 0.567 | No irritation | 67 | No phototoxicity (lower value than 0.5, criterion value to be estimated as no phototoxicity) | 0 | 22500 |
